Data reported in patent US12077503B2, “Substituted cyclic amides and their use as herbicides” (FMC CORPORATION, priority 2015, dated 2024).

What was measured:
Type in all cases: in vivo
[1] = system: barnyardgrass (Echinochloa crus-galli); assay: Test G Pre-Emergence Protocol; conditions: Echinochloa crus-galli, pre-emergence, 312 h, evaluated after 13 days
Method in brief: (§1)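 Herbicidal effect was rated 13 days post-application on a scale where 100 equals total damage. Spraying took place the day after sowing, using 15.625, 62.5 or 250 g/ha of compound in a 50:50 acetone/water solution with 0.5% Tween 20.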

[2] = system: giant foxtail (Setaria faberi); assay: Test G Pre-Emergence Protocol; conditions: Setaria faberi, pre-emergence, 312 h, evaluated after 13 days
Method in brief: as §1

[3] = system: ivy-leaved morning glory (Ipomoea hederacea); assay: Test G Pre-Emergence Protocol; conditions: Ipomoea, pre-emergence, 312 h, evaluated after 13 days
Method in brief: as §1

[4] = system: redroot pigweed (Amaranthus retroflexus); assay: Test G Pre-Emergence Protocol; conditions: Amaranthus retroflexus, pre-emergence, 312 h, evaluated after 13 days
Method in brief: as §1

[5] = system: corn (Zea mays); assay: Test G Pre-Emergence Protocol; conditions: Zea mays, pre-emergence, 312 h, evaluated after 13 days
Method in brief: as §1

[6] = system: velvetleaf (Abutilon theophrasti); assay: Test G Pre-Emergence Protocol; conditions: Abutilon theophrasti, pre-emergence, 312 h, evaluated after 13 days
Method in brief: as §1

[7] = system: barnyardgrass (Echinochloa crus-galli); assay: Test G Post-Emergence Protocol; conditions: Echinochloa crus-galli, post-emergence, 312 h
Method in brief: (§2)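 Post-emergence herbicidal damage, scored visually 0–100 at 13 days. Application at 15.625, 62.5 or 250 g/ha onto 8-day-old plants grown under glasshouse control.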

[8] = system: giant foxtail (Setaria faberi); assay: Test G Post-Emergence Protocol; conditions: Setaria faberi, post-emergence, 312 h
Method in brief: as §2

[9] = system: ivy-leaved morning glory (Ipomoea hederacea); assay: Test G Post-Emergence Protocol; conditions: Ipomoea, post-emergence, 312 h
Method in brief: as §2

[10] = system: redroot pigweed (Amaranthus retroflexus); assay: Test G Post-Emergence Protocol; conditions: Amaranthus retroflexus, post-emergence, 312 h
Method in brief: as §2

[11] = system: corn (Zea mays); assay: Test G Post-Emergence Protocol; conditions: Zea mays, post-emergence, 312 h
Method in brief: as §2

[12] = system: velvetleaf (Abutilon theophrasti); assay: Test G Post-Emergence Protocol; conditions: Abutilon theophrasti, post-emergence, 312 h
Method in brief: as §2

CN1C[C@@H](c2ccc(C(F)(F)F)nc2)[C@H](C(=O)Nc2cccc(F)n2)C1=O (racemic) [Compound 1491]
60%: pest or weed control at 250 g/ha ([7]; 250 g ai/ha, evaluated after 13 days, read-out: damage to plant, Barnyardgrass (100=total damage to plant; 0=no damage to plant)) | pest or weed control at 250 g/ha ([8]; 250 g ai/ha, evaluated after 13 days, read-out: damage to plant, Foxtail, Giant (100=total damage to plant; 0=no damage to plant))
50%: pest or weed control at 62.5 g/ha ([2]; 62.5 g ai/ha, 100=total damage to plant, 0=no damage to plant, read-out: plant damage rating, Foxtail, Giant)
0%: pest or weed control at 15.625 g/ha ([1]; 15.625 g ai/ha, read-out: Barnyard grass damage rating (100=total damage to plant; 0=no damage to plant)) | pest or weed control at 15.625 g/ha ([2]; 15.625 g ai/ha, read-out: Foxtail, Giant damage rating (100=total damage to plant; 0=no damage to plant)) | pest or weed control at 15.625 g/ha ([3]; 15.625 g ai/ha, read-out: Morning-glory, Ivy-leaved damage rating (100=total damage to plant; 0=no damage to plant)) | pest or weed control at 62.5 g/ha ([3]; 62.5 g ai/ha, 100=total damage to plant, 0=no damage to plant, read-out: plant damage rating, Morningglory, Ivy-leaved) | pest or weed control at 250 g/ha ([3]; 250 g ai/ha, read-out: Morningglory, Ivy-leaved damage rating (100=total damage to plant; 0=no damage to plant)) | pest or weed control at 15.625 g/ha ([4]; 15.625 g ai/ha, read-out: Pigweed, Redroot damage rating (100=total damage to plant; 0=no damage to plant)) | pest or weed control at 62.5 g/ha ([4]; 62.5 g ai/ha, 100=total damage to plant, 0=no damage to plant, read-out: plant damage rating, Pigweed, Redroot) | pest or weed control at 250 g/ha ([4]; 250 g ai/ha, read-out: Pigweed, Redroot damage rating (100=total damage to plant; 0=no damage to plant)) | plant injury at 15.625 g/ha ([5]; 15.625 g ai/ha, read-out: Corn damage rating (100=total damage to plant; 0=no damage to plant)) | plant injury at 62.5 g/ha ([5]; 62.5 g ai/ha, 100=total damage to plant, 0=no damage to plant, read-out: plant damage rating, Corn) | plant injury at 250 g/ha ([5]; 250 g ai/ha, read-out: Corn damage rating (100=total damage to plant; 0=no damage to plant)) | pest or weed control at 15.625 g/ha ([6]; 15.625 g ai/ha, read-out: Velvetleaf damage rating (100=total damage to plant; 0=no damage to plant)) | pest or weed control at 62.5 g/ha ([6]; 62.5 g ai/ha, 100=total damage to plant, 0=no damage to plant, read-out: plant damage rating, Velvetleaf) | pest or weed control at 250 g/ha ([6]; 250 g ai/ha, read-out: Velvetleaf damage rating (100=total damage to plant; 0=no damage to plant)) | pest or weed control at 15.625 g/ha ([7]; 15.625 g ai/ha, evaluated after 13 days (100=total damage to plant; 0=no damage to plant), read-out: Barnyardgrass damage rating) | pest or weed control at 15.625 g/ha ([8]; 15.625 g ai/ha, evaluated after 13 days (100=total damage to plant; 0=no damage to plant), read-out: Foxtail, Giant damage rating) | pest or weed control at 15.625 g/ha ([9]; 15.625 g ai/ha, evaluated after 13 days (100=total damage to plant; 0=no damage to plant), read-out: Morningglory, Ivy-leaved damage rating) | pest or weed control at 62.5 g/ha ([9]; 62.5 g ai/ha, evaluated after 13 days, read-out: Morningglory, Ivy-leaved damage rating (100=total damage to plant; 0=no damage to plant)) | pest or weed control at 15.625 g/ha ([10]; 15.625 g ai/ha, evaluated after 13 days (100=total damage to plant; 0=no damage to plant), read-out: Pigweed, Redroot damage rating) | pest or weed control at 62.5 g/ha ([10]; 62.5 g ai/ha, evaluated after 13 days, read-out: Pigweed, Redroot damage rating (100=total damage to plant; 0=no damage to plant)) | pest or weed control at 250 g/ha ([10]; 250 g ai/ha, evaluated after 13 days, read-out: damage to plant, Pigweed, Redroot (100=total damage to plant; 0=no damage to plant)) | plant injury at 15.625 g/ha ([11]; 15.625 g ai/ha, evaluated after 13 days (100=total damage to plant; 0=no damage to plant), read-out: Corn damage rating) | plant injury at 62.5 g/ha ([11]; 62.5 g ai/ha, evaluated after 13 days, read-out: Corn damage rating (100=total damage to plant; 0=no damage to plant)) | plant injury at 250 g/ha ([11]; 250 g ai/ha, evaluated after 13 days, read-out: damage to plant, Corn (100=total damage to plant; 0=no damage to plant)) | pest or weed control at 15.625 g/ha ([12]; 15.625 g ai/ha, evaluated after 13 days (100=total damage to plant; 0=no damage to plant), read-out: Velvetleaf damage rating) | pest or weed control at 62.5 g/ha ([12]; 62.5 g ai/ha, evaluated after 13 days, read-out: Velvetleaf damage rating (100=total damage to plant; 0=no damage to plant)) | pest or weed control at 250 g/ha ([12]; 250 g ai/ha, evaluated after 13 days, read-out: damage to plant, Velvetleaf (100=total damage to plant; 0=no damage to plant))
20%: pest or weed control at 62.5 g/ha ([1]; 62.5 g ai/ha, 100=total damage to plant, 0=no damage to plant, read-out: plant damage rating, Barnyardgrass) | pest or weed control at 62.5 g/ha ([7]; 62.5 g ai/ha, evaluated after 13 days, read-out: Barnyardgrass damage rating (100=total damage to plant; 0=no damage to plant)) | pest or weed control at 62.5 g/ha ([8]; 62.5 g ai/ha, evaluated after 13 days, read-out: Foxtail, Giant damage rating (100=total damage to plant; 0=no damage to plant))
10%: pest or weed control at 250 g/ha ([9]; 250 g ai/ha, evaluated after 13 days, read-out: damage to plant, Morningglory, Ivy-leaved (100=total damage to plant; 0=no damage to plant))
80%: pest or weed control at 250 g/ha ([2]; 250 g ai/ha, read-out: Foxtail, Giant damage rating (100=total damage to plant; 0=no damage to plant))
90%: pest or weed control at 250 g/ha ([1]; 250 g ai/ha, read-out: Barnyardgrass damage rating (100=total damage to plant; 0=no damage to plant))
